Experiments:
[1] = test system: patients after bariatric surgery with post-prandial hypoglycaemia; experiment: Liquid mixed-meal test after single dose: plasma glucose and glucose-requiring hypoglycaemic events; type: in vivo, human; details: for number of events (hypoglycemia requiring glucose rescue), estimate vs placebo: FIG. 5b, generalized linear additive mixed effect model; for glucose, estimate vs placebo: FIG. 5c, linear mixed effect model; for severity of hypoglycemic events / events requiring rescue glucose administration: pre-treatment vs placebo (7 of 12 patients on placebo), p=0.037; for glucose-requiring hypoglycaemic events (%): single dose before mixed meal, placebo 61.5%
Procedure: This study is a placebo controlled, double-blind, randomized, cross-over proof-of-concept study. The study consists of a screening visit and three study dates that need to have a minimum interval between the dates of four days and maximum of two weeks. Ideally, all three study dates are performed within 14 days allowing the usage of one single flash glucose monitoring system sensor (Freestyle Libre®, Abbott) for the entire period. The screening visit is about 90 min. Each study day lasts 6.5 hours and consists of the same schedule. If the subject agrees to use a glucose flash monitoring system, the sensor is installed the afternoon before study day 1 and the subject is instructed in the use of the system.
The 12 subjects were randomly assigned into six groups consisting of two subjects receiving study medication in a double-blind, crossed-over manner as outlined in FIG. 2. Patients need to be sober at least eight hours before ingestion of mixed-meal. To ensure that fasting period is not too long, patients receive a small late evening meal consisting of 4 DarVida Natural Crackers as well as 3 Sinergy® drops (see Appendix for specific contents) or are alternatively pleased to have their dinner at around 10 pm. Treatment consists of a single subcutaneous injection of 100 mg Anakinra (Kineret®) or matched placebo three hours before ingestion of the mixed-meal and of a single oral tablet of 10 mg of empagliflozin (Jardiance®) or matched placebo two hours before mixed-meal at each study day. Patients were randomised to receive in different sequences either (1) anakinra and an oral placebo to empagliflozin, (2) empagliflozin and a subcutaneous placebo (0.67 ml 0.9% saline) to anakinra or (3) double placebo. Participants, investigators and study nurses were blinded to the study drug.
Between the study drug application questionnaires concerning dumping symptoms were answered. Regular measurement of vital parameters, blood samples and hypoglycaemia assessments were performed as outlined in FIG. 1. After ingestion of the liquid mixed-meal subjects had to rest in supine position (at least 45°). One subject was not able to ingest the full specified liquid mixed meal (carbohydrate load of 40 g instead of 60 g) on the first study day and thereafter received the same portion of liquid mixed meal on subsequent study days.
In case of symptomatic hypoglycaemia before the prespecified next laboratory control immediate glucose measurements with Freestyle Libre® and POCT respectively were performed and in case of hypoglycemic values (<3.0 mmol/l) laboratory samples were drawn and glucose (10 g) was given intravenously. Samples were named according to the exact timepoint and the following pre-specified samples were taken according to the study schedule. If patients were not symptomatic glucose (10 g) was given intravenously only in case of POCT glucose values below 2.5 mmol/l.
Blood glucose measurements regularly took place and an inserted catheter in case of hypoglycaemia was adjusted at the beginning of each study date. In case of a symptomatic decrease of blood glucose levels in symptomatic patients below 2.5 mmol/l, counter-regulatory actions (e.g. 100 ml of 10% glucose) were initiated after taking the blood sample panel.
(§1) The primary outcome in this study is the change of post-prandial hypoglycaemia after treatment with empagliflozin (Jardiance®) or anakinra (Kineret®) compared to placebo. This was assessed by blood glucose measurements (capillary POCT measurements and plasma glucose) as well as clinical scoring systems (Edinburgh Hypoglycaemia Scale (Deary et al. Diabetologia 1993; 36(8): 771-7), Mixed-Meal-Test (Wiesli et al. Eur J Endocrinol 2005; 152(4): 605-10.) Stanford sleepiness scale).
At each study day the same schedule took place. […]

[2] = test system: patients after bariatric surgery with post-prandial hypoglycaemia; experiment: Clinical symptom scores during mixed-meal test (Edinburgh Hypoglycemia Scale, Sigstad Score, Stanford Sleepiness Scale); type: in vivo, human; set-up: key to Edinburgh Hypoglycemia Scale score, timepoint 180 min / Edinburgh Hypoglycemia Scale score, timepoint −120 min / Edinburgh Hypoglycemia Scale score, timepoint 0 min / Edinburgh Hypoglycemia Scale score, timepoint 60 min / Edinburgh Hypoglycemia Scale score, timepoint 90 min / Edinburgh Hypoglycemia Scale score, timepoint 120 min / Edinburgh Hypoglycemia Scale score, timepoint 150 min: 0 (=no symptoms); 3 (=severe symptoms); a = sweating; b = palpitations; c = shaking; d = hunger; e = confusion; f = drowsiness; g = odd behaviour; h = speech difficulty; i = incoordination; details: for Edinburgh Hypoglycemia Scale score, timepoint 0 min / Edinburgh Hypoglycemia Scale score, timepoint 60 min / Edinburgh Hypoglycemia Scale score, timepoint 90 min / Edinburgh Hypoglycemia Scale score, timepoint 120 min / Edinburgh Hypoglycemia Scale score, timepoint 150 min / Edinburgh Hypoglycemia Scale score, timepoint 180 min / Edinburgh Hypoglycemia Scale score, timepoint −120 min: per patient and visit; for Edinburgh Hypoglycemia Scale score, timepoint 60 min: 60 min after meal; for Edinburgh Hypoglycemia Scale score, timepoint 90 min: 90 min after meal; for Edinburgh Hypoglycemia Scale score, timepoint 120 min: 120 min after meal; for Edinburgh Hypoglycemia Scale score, timepoint 150 min: 150 min after meal; for Edinburgh Hypoglycemia Scale score, timepoint 180 min: 180 min after meal; for model coefficient (treatment vs placebo) for occurrence of Edinburgh composite score ≥6: headed FIG. 11a, generalized linear additive mixed effect model; for Edinburgh Hypoglycemia Scale score, timepoint −120 min: −120 min relative to meal (time of oral dosing)
Procedure: as §1
The secondary objectives are to evaluate whether treatment of empagliflozin (Jardiance®) or anakinra (Kineret®) have effects on the following aspects: • level of insulin secretion and sensitivity • levels of GLP-1, glucagon and C-peptide • levels of IL-6; IL-1Ra, CRP • scores in Edinburgh Hypoglycaemia Scale (clinical score for assessment of hypoglycemia), Stanford Sleepiness Scale (clinical score of assessment of sleepiness) as well as Sigstad Score (clinical score for early and late dumping symptoms) • Length of time and amount of glucose needed for restoring normoglycemia.
Statistical analysis for this proof-of-concept translational clinical trial was done on a per-protocol basis. Sample size was based on practical considerations due to the lack of pre-existing data for this intervention. All analyses are to be considered exploratory. Analysis of continuous dependent outcome variables (e.g. glucose, insulin, c-peptide, GLP-1, glucagon, insulin secretion index and sensitivity, IL-1p, IL-6, IL-8, TNFα), was done using linear mixed effect models fit by maximum likelihood. Analysis of the binary dependent outcome variables occurrence of severe hypoglycemia requiring glucose rescue and occurrence of composite score ≥6 on the Edinburgh Hypoglycemia Scale was done using a generalized linear additive mixed effect model fit by maximum likelihood (Laplace approximation). Models were fit including fixed effects for categorical variables such as gender, the occurrence of hypoglycemia, treatment and in case of values measured in cell culture supernatants, activation status (non-stimulated, LPS-simulated), as well as the continuous variables time and BMI as indicated. A random-effect for patient was equally included (random by-subject intercepts, fixed slopes). Models were computed using the R “Ime4” and “gamm4” packages. • Individual models were visually assessed for the presence of heteroscedasticity, collinearity and normality of residuals. […] For visual representation, log-transformed outcome values were back-transformed to their initial values.

**Q.** Which results are given for `OC[C@H]1O[C@@H](c2ccc(Cl)c(Cc3ccc(O[C@H]4CCOC4)cc3)c2)[C@H](O)[C@@H](O)[C@@H]1O` [empagliflozin]?
**A.** glycaemia 30 minutes after ingestion of the mixed meal ([1]; 30 min, 10 mg empagliflozin, the other value is placebo): 10.1 mmol/L; glycaemia 60 minutes after ingestion of the mixed meal ([1]; 60 min, 10 mg empagliflozin, the other value is placebo): 6.9 mmol/L; glycaemia 90 minutes after ingestion of the mixed meal ([1]; 90 min, 10 mg empagliflozin, the other value is placebo): 3.5; number of events (hypoglycemia requiring glucose rescue), estimate vs placebo [1]: −2.882; glucose, estimate vs placebo [1]: −0.472; severity of hypoglycemic events / events requiring rescue glucose administration [1]: significantly reduced the severity of hypoglycemic events with only two events requiring rescue glucose administration; glucose-requiring hypoglycaemic events (%) [1]: 16.6%; peak postprandial glucose levels ([1]; vs placebo): reduced; Edinburgh Hypoglycemia Scale score, timepoint 0 min [2]: 0; Edinburgh Hypoglycemia Scale score, timepoint 60 min [2]: 0; Edinburgh Hypoglycemia Scale score, timepoint 90 min [2]: 0; Edinburgh Hypoglycemia Scale score, timepoint 120 min [2]: 0; Edinburgh Hypoglycemia Scale score, timepoint 150 min [2]: 0; Edinburgh Hypoglycemia Scale score, timepoint 180 min [2]: 0; model coefficient (treatment vs placebo) for occurrence of Edinburgh composite score ≥6 [2]: −2.429; Edinburgh Hypoglycemia Scale score, timepoint −120 min [2]: 0

**Q.** Which “number of events (hypoglycemia requiring glucose rescue), estimate vs placebo” value [1] does the source give for “anakinra: CAS NO 143090-92-0; recombinant, non-glycosylated form of the human interleukin-1 receptor antagonist (IL-1 Ra), 153 amino acids” here?
**A.** −2.882

**Q.** And the “glucose, estimate vs placebo” value [1]?
**A.** 0.133

**Q.** What about the “severity of hypoglycemic events / events requiring rescue glucose administration” value [1] of the same compound?
**A.** significantly reduced the severity of hypoglycemic events with only two events requiring rescue glucose administration

**Q.** What about the “glucose-requiring hypoglycaemic events (%)” value [1] of the same compound?
**A.** 16.6%

**Q.** And the “changes of the glucose curve within the first 90 minutes” value ([1]; vs placebo)?
**A.** did not result in significant changes

**Q.** And the “Edinburgh Hypoglycemia Scale score, timepoint 0 min” value [2]?
**A.** 0

**Q.** And the “Edinburgh Hypoglycemia Scale score, timepoint 60 min” value [2]?
**A.** 0

**Q.** And the “Edinburgh Hypoglycemia Scale score, timepoint 90 min” value [2]?
**A.** 0

**Q.** And the “Edinburgh Hypoglycemia Scale score, timepoint 120 min” value [2]?
**A.** 0

**Q.** What about the “Edinburgh Hypoglycemia Scale score, timepoint 150 min” value [2] of the same compound?
**A.** 0

**Q.** And the “Edinburgh Hypoglycemia Scale score, timepoint 180 min” value [2]?
**A.** 0

**Q.** What about the “model coefficient (treatment vs placebo) for occurrence of Edinburgh composite score ≥6” value [2] of the same compound?
**A.** −2.429

**Q.** What about the “Edinburgh Hypoglycemia Scale score, timepoint −120 min” value [2] of the same compound?
**A.** 0

Source: patent US20220088144A1, “SGLT-2 INHIBITORS OR IL-1R ANTAGONISTS FOR REDUCTION OF HYPOGLYCAEMIA AFTER BARIATRIC SURGERY” (UNIVERSITÄTSSPITAL BASEL, priority 2019, published 2022)
